Test results: paper PMC3772719 (Bioorganic & medicinal chemistry letters, 2013)
“Also recorded” adds a separate entry of the source.

Tests used:
[1] = test system: PPC-1 prostate cancer cells; settings: for synergy with TRAIL to reduce the number of viable cells: compound 5 μM, Figure 4; for synergy with TRAIL to reduce the number of viable cells / LD50 values for TRAIL in the presence of the compound: PPC-1 cells; for LD50 values for TRAIL in the presence of the compound: compound 5 μM for 4 h, then TRAIL 20 h
[2] = test system: MDA-MB-231 cells; experiment: Synergy with TNF to induce cell death in MDA-MB-231 cells; format: cell-based; settings: compound 5 μM, various concentrations of TNF, Figure S2
[3] = test system: human foreskin fibroblasts (HFF); format: cell-based; settings: compound 5 μM alone or in the presence of TRAIL (100 ng/mL), Figure 5
[4] = Cellular assay; format: cell-based; settings: Figure S1

For `CN[C@@H](C)C(=O)N[C@H](C(=O)N1CCC[C@H]1C(=O)NNc1ccccc1)C(C)C` [Compound 2a], the “synergy with TRAIL to reduce the number of viable cells” value [1] was “act synergistically with TRAIL”.
In the case of `CN[C@@H](C)C(=O)N[C@H](C(=O)N1CCC[C@H]1C(=O)Nc1cccc2ccccc12)C(C)C` [Compound 2b], the “synergy with TNF to induce cell death” value [2] was “acts synergistically”, the “toxicity in normal cells” value [3] was “No toxicity was observed” and the “LD50 values for TRAIL in the presence of the compound” value (from here on “LD50 values for TRAIL in the presence”) [1] was 0.073 to 0.089 nM. The “synergy with TRAIL to reduce the number of viable cells” value [1] was “act synergistically with TRAIL”.
With `CN[C@@H](C)C(=O)N[C@H](C(=O)N1CCC[C@H]1C(=O)N[C@@H]1CCCc2ccccc21)C(C)C` [Compound 2c] the “LD50 values for TRAIL in the presence” value [1] was 0.073 to 0.089 nM and the “synergy with TRAIL to reduce the number of viable cells” value [1] was “act synergistically with TRAIL”.
For `CN[C@@H](C)C(=O)N[C@H](C(=O)N[C@@H](C)C(=O)Nc1cccc2ccccc12)C(C)C` [Compound 8q], the “toxicity in normal cells” value [3] was “No toxicity was observed”, the “LD50 values for TRAIL in the presence” value [1] was 0.073 to 0.089 nM and the “synergy with TRAIL to reduce the number of viable cells” value [1] was “sensitized TRAIL-resistant prostate cancer cells to apoptotic cell death; also recorded: act synergistically with TRAIL”. For the same molecule, the “toxicity as a single agent” value ([1]; single agent, Figures 4, 5 and S1) was “no toxicity”.
For `CC(C)[C@H](NC(=O)[C@H](C)N)C(=O)N[C@@H](C)C(=O)Nc1cccc2ccccc12` [Compound 8t], the “activity in a cellular assay” value [4] was “did not show any activity”.
